Where a name gives a salt, the structure may show the parent alone. Read-outs that look alike come from different tables or passages of the source.
Tested on: Acinetobacter baumannii ATCC 17978
Test: Antimicrobial susceptibility testing: 90% growth inhibitory concentration (IC90) determination
Assay type: cell-based
Settings: 90% growth inhibitory concentration, Acinetobacter baumannii ATCC17978, Iso-Sensitest broth, OD 600 nm over 16h, read-out: ATCC17978 IC90
Outline: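 Growth of the Acinetobacter baumannii strain was followed by optical density at 600 nm every 20 minutes for 16h at 35±2° C. Inoculum was ~5×10^(5) CFU/ml in Iso-Sensitest medium, with twofold compound dilutions (e.g. 50 to 0.097 μM final). The 90% inhibitory concentration was derived in log-phase growth.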

[1] = Acinetobacter baumannii, ATCC17978, 16 h

Structure (SMILES)	IC90 [1] [µM]	IC90 [µM]
CCc1cc(Nc2nccn3c(-c4ccc(Oc5ccc(OC)cn5)c(F)c4F)cnc23)ccc1C(=O)NCCNC(=O)[C@H](N)CCCNC(=N)N [Example 447, N-[2-[[(2R)-2-amino-5-guanidino-pentanoyl]amino]ethyl]-4-[[3-[2,3-difluoro-4-[(5-methoxy-2-pyridyl)oxy]phenyl]imidazo [1,2-a]pyrazin-8-yl]amino]-2-ethyl-benzamide; formic acid]	0.63	
CCc1cc(Nc2nccn3c(-c4ccc(Oc5ccc(OC)cn5)c(F)c4F)cnc23)ccc1C(=O)NCCNC(=O)CCN [Example 448, N-[2-(3-aminopropanoylamino)ethyl]-4-[[3-[2,3-difluoro-4-[(5-methoxy-2-pyridyl)oxy]phenyl]imidazo [1,2-a]pyrazin-8-yl]amino]-2-ethyl-benzamide; formic acid]	0.47	
CCc1cc(Nc2nccn3c(-c4ccc(Oc5ccc(OC)cn5)c(F)c4F)cnc23)ccc1C(=O)NCCNC(=O)[C@@H](N)CCNC(=N)N [Example 449, N-[2-[[(2S)-2-amino-4-guanidino-butanoyl]amino]ethyl]-4-[[3-[2,3-difluoro-4-[(5-methoxy-2-pyridyl)oxy]phenyl]imidazo [1,2-a]pyrazin-8-yl]amino]-2-ethyl-benzamide; formic acid]	0.53	
CCc1cc(Nc2nccn3c(-c4ccc(Oc5ccc(OC)cn5)c(F)c4F)cnc23)ccc1C(=O)NCCNC(=O)[C@H](N)CCNC(=N)N [Example 450, N-[2-[[(2R)-2-amino-4-guanidino-butanoyl]amino]ethyl]-4-[[3-[2,3-difluoro-4-[(5-methoxy-2-pyridyl)oxy]phenyl]imidazo [1,2-a]pyrazin-8-yl]amino]-2-ethyl-benzamide]	0.56	
Cc1cc(Nc2nccn3c(-c4ccc(OCC#N)c(F)c4F)cnc23)ccc1C(=O)NCCNC(=O)[C@@H]1CCNC[C@@H]1O [Example 451, (3R,4R)-N-[2-[[4-[[3-[4-(cyanomethoxy)-2,3-difluoro-phenyl]imidazo[1,2-a]pyrazin-8-yl]amino]-2-methyl-benzoyl]amino]ethyl]-3-hydroxy-piperidine-4-carboxamide; formic acid]		0.76
CCc1cc(Nc2nccn3c(-c4ccc(OC)c(F)c4F)cnc23)ccc1C(=O)N[C@@H](C)CNC(=O)[C@@H](N)CCCCN [Example 453, N-[(1S)-2-[[(2S)-2,6-diaminohexanoyl]amino]-1-methyl-ethyl]-4-[[3-(2,3-difluoro-4-methoxy-phenyl)imidazo[1,2-a]pyrazin-8-yl]amino]-2-ethyl-benzamide]	0.32	
CCc1cc(Nc2nccn3c(-c4ccc(OC)c(F)c4F)cnc23)ccc1C(=O)NCCCCC(=O)NC[C@H]1O[C@H](O[C@@H]2[C@@H](O)[C@H](O[C@H]3O[C@H](CN)[C@@H](O)[C@H](O)[C@H]3O)[C@@H](N)C[C@H]2NC(=O)[C@@H](O)CCN)[C@H](O)[C@@H](N)[C@@H]1O [Example 454, trifluoroacetate]		0.97
CCc1cc(Nc2nccn3c(-c4ccc(Oc5nccc(C)n5)c(F)c4F)cnc23)ccc1C(=O)N[C@@H](C)CNC(=O)[C@@H](N)CCNC(=N)N [Example 455, N-((S)-1-((S)-2-amino-4-guanidinobutanamido)propan-2-yl)-4-((3-(2,3-difluoro-4-((4-methylpyrimidin-2-yl)oxy)phenyl)imidazo[1,2-a]pyrazin-8-yl)amino)-2-ethylbenzamide formiate 1:2]	0.72	
CCc1cc(Nc2nccn3c(-c4ccc(Oc5ccccn5)c(F)c4F)cnc23)ccc1C(=O)N[C@@H](C)CNC(=O)[C@@H](N)CCNC(=N)N [Example 456, N-[(1S)-2-[[(2S)-2-amino-4-guanidino-butanoyl]amino]-1-methyl-ethyl]-4-[[3-[2,3-difluoro-4-(2-pyridyloxy)phenyl]imidazo [1,2-a]pyrazin-8-yl]amino]-2-ethyl-benzamide; formic acid]	0.71	
CCc1cc(Nc2nccn3c(-c4ccc(Oc5ccncn5)c(F)c4F)cnc23)ccc1C(=O)N[C@@H](C)CNC(=O)[C@@H](N)CCNC(=N)N [Example 457, N-[(1S)-2-[[(2S)-2-amino-4-guanidino-butanoyl]amino]-1-methyl-ethyl]-4-[[3-(2,3-difluoro-4-pyrimidin-4-yloxy-phenyl)imidazo[1,2-a]pyrazin-8-yl]amino]-2-ethyl-benzamide; formic acid]	0.98	
CCc1cc(Nc2nccn3c(-c4ccc(Oc5ccncn5)c(F)c4F)cnc23)ccc1C(=O)N[C@@H](C)CNC(=O)[C@H](N)CCNC(=N)N [Example 458, N-[(1S)-2-[[(2R)-2-amino-4-guanidino-butanoyl]amino]-1-methyl-ethyl]-4-[[3-(2,3-difluoro-4-pyrimidin-4-yloxy-phenyl)imidazo[1,2-a]pyrazin-8-yl]amino]-2-ethyl-benzamide; formic acid]	0.66	
COc1ccc(-c2cnc3c(Nc4ccc(C(=O)NCCNC(=O)[C@@H]5CCNC[C@@H]5O)c(C)c4)nccn23)c(F)c1F [Example 459, (3R,4R)-N-[2-[[4-[[3-(2,3-difluoro-4-methoxy-phenyl)imidazo[1,2-a]pyrazin-8-yl]amino]-2-methyl-benzoyl]amino]ethyl]-3-hydroxy-piperidine-4-carboxamide; formic acid]	0.94	
C#CCOc1ccc(-c2cnc3c(Nc4ccc(C(=O)N[C@H](C)CN)c(CC)c4)nccn23)c(F)c1F [Example 460, N-[(1R)-2-amino-1-methyl-ethyl]-4-[[3-(2,3-difluoro-4-prop-2-ynoxy-phenyl)imidazo[1,2-a]pyrazin-8-yl]amino]-2-ethyl-benzamide]	0.48	
CCc1cc(Nc2nccn3c(-c4ccc(Oc5nccc(OC)n5)c(F)c4F)cnc23)ccc1C(=O)N[C@@H](C)CN [Example 462, (S)-N-(1-aminopropan-2-yl)-4-((3-(2,3-difluoro-4-((4-methoxypyrimidin-2-yl)oxy)phenyl)imidazo[1,2-a]pyrazin-8-yl)amino)-2-ethylbenzamide]	0.52	
CCc1cc(Nc2nccn3c(-c4ccc(Oc5cc(OC)ncn5)c(F)c4F)cnc23)ccc1C(=O)N[C@@H](C)CN [Example 463, (S)-N-(1-aminopropan-2-yl)-4-((3-(2,3-difluoro-4-((6-methoxypyrimidin-4-yl)oxy)phenyl)imidazo[1,2-a]pyrazin-8-yl)amino)-2-ethylbenzamide]	0.84	
CCc1cc(Nc2nccn3c(-c4ccc(OC)c(F)c4F)cnc23)ccc1C(=O)NCC(=O)N1CCN[C@H](CO)C1 [Example 464, 4-[[3-(2,3-difluoro-4-methoxy-phenyl)imidazo[1,2-a]pyrazin-8-yl]amino]-2-ethyl-N-[2-[(3S)-3-(hydroxymethyl)piperazin-1-yl]-2-oxo-ethyl]benzamide]	0.24	
CCc1cc(Nc2nccn3c(-c4ccc(OC)c(F)c4F)cnc23)ccc1C(=O)N[C@H](C)CNC(=O)[C@@H](N)CCCCN [Example 465, N-[(1R)-2-[[(2S)-2,6-diaminohexanoyl]amino]-1-methyl-ethyl]-4-[[3-(2,3-difluoro-4-methoxy-phenyl)imidazo[1,2-a]pyrazin-8-yl]amino]-2-ethyl-benzamide]	0.3	
CCc1cc(Nc2nccn3c(-c4ccc(Oc5nccc(OC)n5)c(F)c4F)cnc23)ccc1C(=O)NCCN [Example 466, N-(2-aminoethyl)-4-((3-(2,3-difluoro-4-((4-methoxypyrimidin-2-yl)oxy)phenyl)imidazo[1,2-a]pyrazin-8-yl)amino)-2-ethylbenzamide]	0.56	
COc1ccc(-c2cnc3c(Nc4cc(C)c(C(=O)NCCN)c(F)c4)nccn23)c(F)c1F [Example 467, N-(2-aminoethyl)-4-((3-(2,3-difluoro-4-methoxyphenyl)imidazo[1,2-a]pyrazin-8-yl)amino)-2-fluoro-6-methylbenzamide]	0.63	
COc1ccc(-c2cnc3c(Nc4ccc(C(=O)NC[C@@H](N)CNC(=O)[C@@H]5C[C@@H](O)CN5)c(C)c4)nccn23)c(F)c1F [Example 468, (2S,4R)-N-[(2R)-2-amino-3-[[4-[[3-(2,3-difluoro-4-methoxy-phenyl)imidazo[1,2-a]pyrazin-8-yl]amino]-2-methyl-benzoyl]amino]propyl]-4-hydroxy-pyrrolidine-2-carboxamide; formic acid]	0.48	
COc1ccc(-c2cnc3c(Nc4ccc(C(=O)NC[C@H](N)CNC(=O)[C@@H]5C[C@@H](O)CN5)c(C)c4)nccn23)c(F)c1F [Example 469, (2S,4R)-N-[(2S)-2-amino-3-[[4-[[3-(2,3-difluoro-4-methoxy-phenyl)imidazo[1,2-a]pyrazin-8-yl]amino]-2-methyl-benzoyl]amino]propyl]-4-hydroxy-pyrrolidine-2-carboxamide; formic acid]	0.5	
Cc1cc(Nc2nccn3c(-c4ccc(OCC#N)c(F)c4F)cnc23)ccc1C(=O)NC[C@H](N)CNC(=O)[C@@H]1C[C@@H](O)CN1 [Example 470, (2S,4R)-N-[(2S)-2-amino-3-[[4-[[3-[4-(cyanomethoxy)-2,3-difluoro-phenyl]imidazo[1,2-a]pyrazin-8-yl]amino]-2-methyl-benzoyl]amino]propyl]-4-hydroxy-pyrrolidine-2-carboxamide; formic acid]	0.6	
CCc1cc(Nc2nccn3c(-c4ccc(Oc5ccccn5)c(F)c4F)cnc23)ccc1C(=O)N(C)C [Example 471, 4-[[3-[2,3-difluoro-4-(2-pyridyloxy)phenyl]imidazo [1,2-a]pyrazin-8-yl]amino]-2-ethyl-N,N-dimethyl-benzamide]	0.66	
CCc1cc(Nc2nccn3c(-c4ccc(Oc5ccccn5)c(F)c4F)cnc23)ccc1C(=O)NC [Example 472, 4-[[3-[2,3-difluoro-4-(2-pyridyloxy)phenyl]imidazo [1,2-a]pyrazin-8-yl]amino]-2-ethyl-N-methyl-benzamide]	0.21	
